Target: T1, Serine/threonine-protein kinase Chk1 (Homo sapiens, UniProt O14757)
T1 sequence (O14757 whole entry): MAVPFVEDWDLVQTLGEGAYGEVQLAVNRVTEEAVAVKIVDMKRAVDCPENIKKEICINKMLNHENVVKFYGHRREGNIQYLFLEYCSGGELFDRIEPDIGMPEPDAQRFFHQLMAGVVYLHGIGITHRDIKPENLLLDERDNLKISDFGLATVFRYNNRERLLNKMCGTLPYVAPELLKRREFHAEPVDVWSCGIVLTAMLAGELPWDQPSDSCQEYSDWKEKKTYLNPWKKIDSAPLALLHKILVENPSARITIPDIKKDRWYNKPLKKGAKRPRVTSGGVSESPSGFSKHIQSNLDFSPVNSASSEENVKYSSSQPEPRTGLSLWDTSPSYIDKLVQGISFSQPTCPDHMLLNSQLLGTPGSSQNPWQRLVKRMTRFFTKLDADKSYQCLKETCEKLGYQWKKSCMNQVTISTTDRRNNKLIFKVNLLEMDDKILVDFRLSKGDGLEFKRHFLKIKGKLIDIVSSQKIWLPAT
Experiment: Inhibition of human recombinant Chk1

Row | SMILES | IC50 [µM]
1 | O=C1Nc2ccccc2Nc2cc(-c3ccccc3)ccc21 | > 10
2 | CCOc1cccc(-c2ccc3c(c2)Nc2ccccc2NC3=O)c1 | > 10
3 | N#Cc1ccc(-c2ccc3c(c2)Nc2ccccc2NC3=O)cc1 | > 10
4 | CC(=O)c1ccccc1-c1ccc2c(c1)Nc1ccccc1NC2=O | 8
5 | O=c1[nH]c2ccccc2c(=O)c2ccccc12 | > 50
6 | O=C1Nc2ccccc2S(=O)(=O)c2ccccc21 | > 50
7 | O=C1Nc2ccccc2C(O)c2ccccc21 (stereo not given) | > 50
8 | CC(=O)c1ccc(-c2ccc3c(c2)Nc2ccccc2NC3=O)cc1 | > 10
9 | COc1ccccc1-c1ccc2c(c1)Nc1ccccc1NC2=O | 3.6
10 | COc1cc(-c2ccc3c(c2)C(=O)Nc2ccccc2N3)ccc1O | > 10

The next molecules have a lower IC50 than those just listed; values first:

Row | IC50 [µM] | SMILES
11 | 0.082 | COc1cc(-c2ccc3c(c2)Nc2ccccc2NC3=O)ccc1O
12 | 0.033 | COc1cc(-c2ccc3c(c2)Nc2ccccc2NC3=O)ccc1C#N
13 | 0.048 | COc1cc(-c2ccc3c(c2)Nc2ccccc2NC3=O)ccc1C(C)=O
14 | 0.088 | COc1cc(-c2ccc3c(c2)Nc2ccccc2NC3=O)ccc1C(N)=O
15 | 0.5 | COc1cccc(-c2ccc3c(c2)Nc2ccccc2NC3=O)c1
16 | 0.97 | N#Cc1cccc(-c2ccc3c(c2)Nc2ccccc2NC3=O)c1
17 | 2.1 | CC(=O)c1cccc(-c2ccc3c(c2)Nc2ccccc2NC3=O)c1
18 | 0.01 | COc1cc(-c2ccc3c(c2)Nc2ccccc2NC3=O)ccc1[N+](=O)[O-]
19 | 0.053 | COC(=O)c1ccc(-c2ccc3c(c2)Nc2ccccc2NC3=O)cc1OC
20 | 0.091 | COc1cc(-c2ccc3c(c2)Nc2ccccc2NC3=O)ccc1Cl
